This assay has as its target Recombinant human HSD17B13 (Homo sapiens (Human), UniProt Q7Z5P4). In words: HSD17B13 rapid-fire mass spectrometry assay (RF/MS assay). It is filed as biochemical. The settings on record: inhibition of HSD17B13; LTB4 10 μM, NAD+ 0.5 mM, RT 3 h; IC50 ranges A-E. The method in brief: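 Sf9-expressed human HSD17B13 (80 nM) with 10 μM LTB4 and 0.5 mM NAD+, incubated with compound (0–100 μM) for 3 h at RT in Tris pH 7.5/BSA/Tween-20. After formic acid quench, LTB4 conversion to 12-oxo-LTB4 measured by RapidFire MS/MS. IC50 from normalised residual activity, duplicates.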

Recombinant human HSD17B13, sequence (Q7Z5P4 20-300): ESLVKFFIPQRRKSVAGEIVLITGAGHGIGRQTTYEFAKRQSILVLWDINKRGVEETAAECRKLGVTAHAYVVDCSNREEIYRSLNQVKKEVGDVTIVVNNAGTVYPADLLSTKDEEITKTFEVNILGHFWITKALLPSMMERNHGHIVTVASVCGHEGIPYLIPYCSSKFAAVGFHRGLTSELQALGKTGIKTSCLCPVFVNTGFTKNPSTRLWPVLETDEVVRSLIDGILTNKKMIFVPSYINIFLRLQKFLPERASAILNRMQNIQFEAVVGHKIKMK

A word on the IC50: it is the point on the concentration scale where inhibition reaches its midpoint. As for `COc1cc(C(=O)O)c(F)cc1NS(=O)(=O)c1ccc2sc(-c3ccc(C4CCC(C)(C)CC4)cc3)nc2c1` [Example 664], the IC50 was 100 to 500 nM.

As to `COc1cc(C(=O)O)c(F)cc1NS(=O)(=O)c1nc(-c2ccc(C3CCCCC3)cc2)sc1C` [Example 665], the IC50 lay in the range of 100 to 500 nM.

With `COc1cc(C(=O)O)c(F)cc1NS(=O)(=O)c1nc(-c2ccc(C3CCC(C)(C)CC3)cc2)sc1C` [Example 666], the IC50 was in the range of 100 to 500 nM.

On to `CC[C@H]1CC[C@H](c2ccc(-c3nc(S(=O)(=O)Nc4cc(F)c(C(=O)O)cc4OC)c(C)s3)cc2)CC1` [Example 667], for which the IC50 lay within 100 to 500 nM.

As for `COc1cc(C(=O)O)c(F)cc1NS(=O)(=O)c1ccc2sc(-c3ccc(-c4ccccc4)cc3)nc2c1` [Example 668], the IC50 is 100 to 500 nM.

In the case of `COc1cc(C(=O)O)c(F)cc1NS(=O)(=O)c1ccc2sc(-c3ccc(C4CC4)cc3)nc2c1` [Example 669], the IC50 fell in the range of 100 to 500 nM.

On to `CC[C@H]1CC[C@H](c2ccc(-c3nc4cc(S(=O)(=O)Nc5cc(F)c(C(=O)O)cc5OC)ccc4o3)cc2)CC1` [Example 670, 4-((2-(4-((1r,4r)-4-ethylcyclohexyl)phenyl)benzo[d]oxazole)-5-sulfonamido)-2-fluoro-5-methoxybenzoic acid], for which the IC50 was 100 to 500 nM.

Regarding `COc1cc(C(=O)O)cc(F)c1NS(=O)(=O)c1csc(-c2ccc(C3CCC(C)(C)CC3)cc2C(F)(F)F)n1` [Example 671], the IC50 was less than 100 nM.

`COc1cc(C(=O)O)c(F)cc1NS(=O)(=O)c1coc(-c2ccc(C3=CCC(C(C)C)CC3)cc2C(F)(F)F)n1` (stereo not shown) [Example 672]: the IC50 was less than 100 nM.

`COc1cc(C(=O)O)c(F)cc1NS(=O)(=O)c1coc(-c2ccc([C@H]3CC[C@@H](C(C)C)CC3)cc2C(F)(F)F)n1` [Example 673]: the IC50 was 100 to 500 nM.

As to `COc1cc(C(=O)O)c(F)cc1NS(=O)(=O)c1coc(-c2ccc([C@H]3CC[C@H](C(C)C)CC3)cc2C(F)(F)F)n1` [Example 674], the IC50 is less than 100 nM.

`COc1cc(C(=O)O)c(F)cc1NS(=O)(=O)c1coc(-c2ccc(C3=CCC(C)(C)CC3)cc2C(F)(F)F)n1` [Example 675]: the IC50 is less than 100 nM.

With `COc1cc(C(=O)O)c(F)cc1NS(=O)(=O)c1coc(-c2ccc(C3CCC(C)(C)CC3)cc2C(F)(F)F)n1` [Example 676], the IC50 is less than 100 nM.

For `COc1cc(C(=O)O)c(F)cc1NS(=O)(=O)c1coc(-c2ccc(C3=CCC(C(F)(F)F)CC3)cc2C(F)(F)F)n1` (stereo not shown) [Example 677], the IC50 was less than 100 nM.

Take `COc1cc(C(=O)O)c(F)cc1NS(=O)(=O)c1coc(-c2ccc([C@H]3CC[C@@H](C(F)(F)F)CC3)cc2C(F)(F)F)n1` [Example 678]: the IC50 was less than 100 nM.

Take `COc1cc(C(=O)O)c(F)cc1NS(=O)(=O)c1coc(-c2ccc([C@H]3CC[C@H](C(F)(F)F)CC3)cc2C(F)(F)F)n1` [Example 679]: the half-inhibitory concentration (IC50) was less than 100 nM.

Consider `COc1cc(C(=O)O)c(OC)cc1NS(=O)(=O)c1csc(-c2ccc(C3CCC(C)(C)CC3)cc2C(F)(F)F)n1` [Example 680], for which the IC50 was less than 100 nM.

Turning to `COc1cc(C(=O)O)c(-c2ccccc2)cc1NS(=O)(=O)c1csc(-c2ccc(C3CCC(C)(C)CC3)cc2C(F)(F)F)n1` [Example 681], the IC50 was in the range of 1000 to 100000 nM.

Take `COc1cc(C(=O)O)c(F)cc1N(C)S(=O)(=O)c1csc(-c2ccc(C3CCC(C)(C)CC3)cc2C(F)(F)F)n1` [Example 683]: the IC50 lay in the range of 100 to 500 nM.

`COc1cc(C(=O)O)c(F)cc1NS(=O)(=O)c1cnn(-c2ccc(C3CCC(C)(C)CC3)cc2)c1` [Example 684]: the IC50 was 100 to 500 nM.

Regarding `COc1cc(C(=O)O)c(F)cc1NS(=O)(=O)c1cnn(-c2ccc([C@H]3CC[C@@H](C(F)(F)F)CC3)cc2)c1` [Example 685, 2-fluoro-5-methoxy-4-((1-(4-((1s,4s)-4-(trifluoromethyl)cyclohexyl)phenyl)-1H-pyrazole)-4-sulfonamido)benzoic acid], the IC50 was 100 to 500 nM.

As to `COc1cc(C(=O)O)c(F)cc1NS(=O)(=O)c1cnn(-c2ccc([C@H]3CC[C@H](C(F)(F)F)CC3)cc2)c1` [Example 686, 2-fluoro-5-methoxy-4-((1-(4-((1r,4r)-4-(trifluoromethyl)cyclohexyl)phenyl)-1H-pyrazole)-4-sulfonamido)benzoic acid], the IC50 was 100 to 500 nM.

As for `COc1cc(C(=O)O)c(F)cc1NS(=O)(=O)c1cnn(-c2ccc([C@H]3CC[C@@H](C(C)C)CC3)cc2)c1` [Example 687], the IC50 is 100 to 500 nM.

In the case of `COc1cc(C(=O)O)c(F)cc1NS(=O)(=O)c1cnn(-c2ccc([C@H]3CC[C@H](C(C)C)CC3)cc2)c1` [Example 688], the IC50 was 100 to 500 nM.

For the molecule `COc1cc(C(=O)O)c(F)cc1NS(=O)(=O)c1ccn(-c2ccc(C3CCCCC3)cc2)n1` [Example 689], the IC50 lay in the range of 100 to 500 nM.

Turning to `COc1cc(C(=O)O)c(F)cc1NS(=O)(=O)c1ccn(-c2ccc(C3CCC(C)(C)CC3)cc2)n1` [Example 690], the IC50 is 100 to 500 nM.

For `COc1cc(C(=O)O)c(F)cc1NS(=O)(=O)c1ccn(-c2ccc([C@H]3CC[C@@H](C(F)(F)F)CC3)cc2)n1` [Example 691], the IC50 lay within 100 to 500 nM.

For the molecule `COc1cc(C(=O)O)c(F)cc1NS(=O)(=O)c1ccn(-c2ccc([C@H]3CC[C@H](C(F)(F)F)CC3)cc2)n1` [Example 692], the IC50 lay within 100 to 500 nM.

Regarding `COc1cc(C(=O)O)c(F)cc1NS(=O)(=O)c1ccn(-c2ccc([C@H]3CC[C@@H](C(C)C)CC3)cc2)n1` [Example 693], the IC50 lay within 100 to 500 nM.

For the molecule `COc1cc(C(=O)O)c(F)cc1NS(=O)(=O)c1ccn(-c2ccc([C@H]3CC[C@H](C(C)C)CC3)cc2)n1` [Example 694], the IC50 was less than 100 nM.

`COc1cc(C(=O)O)c(NC(C)=O)cc1NS(=O)(=O)c1csc(-c2ccc(C3CCC(C)(C)CC3)cc2C(F)(F)F)n1` [Example 695]: the IC50 lay within 1000 to 100000 nM.

Regarding `COc1cc(C(=O)O)c(Cl)cc1NS(=O)(=O)c1csc(-c2ccc(C3CCC(C)(C)CC3)cc2C(F)(F)F)n1` [Example 696], the IC50 was in the range of 500 to 1000 nM.

As for `CN(C)c1cc(C(=O)O)ccc1NS(=O)(=O)c1csc(-c2ccc(C3CCC(C)(C)CC3)cc2C(F)(F)F)n1` [Example 697], the 50% inhibitory concentration (IC50) was in the range of 1000 to 100000 nM.

With `COc1cc(C(=O)O)c(C2=CCCC2)cc1NS(=O)(=O)c1csc(-c2ccc(C3CCC(C)(C)CC3)cc2C(F)(F)F)n1` [Example 698], the IC50 was in the range of 1000 to 100000 nM.

For the molecule `COc1cc(C(=O)O)c(C2CC2)cc1NS(=O)(=O)c1csc(-c2ccc(C3CCC(C)(C)CC3)cc2C(F)(F)F)n1` [Example 699], the IC50 was in the range of 1000 to 100000 nM.

`COc1cc(C(=O)O)c(F)cc1NS(=O)(=O)c1ccc2nc(-c3ccc(C4CCC(C)(C)CC4)cc3)sc2c1` [Example 700]: the IC50 was 1000 to 100000 nM.

For the molecule `COc1cc(C(=O)O)c(NS(C)(=O)=O)cc1NS(=O)(=O)c1csc(-c2ccc(C3CCC(C)(C)CC3)cc2C(F)(F)F)n1` [Example 701], the IC50 was 1000 to 100000 nM.

`COc1cc(C(=O)O)c(C)cc1NS(=O)(=O)c1csc(-c2ccc(C3CCC(C)(C)CC3)cc2C(F)(F)F)n1` [Example 702]: the half-maximal inhibitory concentration (IC50) was in the range of 1000 to 100000 nM.

For the molecule `COc1cc(C(=O)O)c(F)cc1NS(=O)(=O)c1ccc2sc(-c3ccc(C4CCCCC4)cc3C(F)(F)F)nc2c1` [Example 703], the IC50 lay within 500 to 1000 nM.

In the case of `COc1cc(C(=O)O)c(F)cc1NS(=O)(=O)c1ccc2sc(-c3ccc(C4CCC(C)(C)CC4)cc3C(F)(F)F)nc2c1` [Example 704], the IC50 lay within 100 to 500 nM.

Regarding `CNc1cc(C(=O)O)ccc1NS(=O)(=O)c1csc(-c2ccc(C3CCC(C)(C)CC3)cc2C(F)(F)F)n1` [Example 705], the IC50 is 1000 to 100000 nM.

With `CCCCC[C@H]1CC[C@H](c2ccc(-c3nc(S(=O)(=O)Nc4cc(F)c(C(=O)O)cc4OC)cs3)cc2)CC1` [Example 706], the IC50 is less than 100 nM.

Turning to `CCCCC[C@H]1CC[C@H](c2ccc(-c3nc(S(=O)(=O)Nc4ccc(C(=O)O)cc4OC)cs3)c(F)c2)CC1` [Example 707], the IC50 is 100 to 500 nM.

With `COc1cc(C(=O)O)ccc1NS(=O)(=O)c1cnc(-c2ccc(C3=CC(C)(C)CC(C)(C)C3)cc2)s1` [Example 708], the IC50 lay in the range of 100 to 500 nM.

Turning to `CCC[C@H]1CC[C@H](C2CC=C(c3ccc(-c4ncc(S(=O)(=O)Nc5ccc(C(=O)O)cc5OC)s4)cc3)CC2)CC1` (stereo partly shown) [Example 709], the IC50 was in the range of 1000 to 100000 nM.

For `COc1cc(C(=O)O)ccc1NS(=O)(=O)c1cnc(-c2ccc(-c3ccc(C(F)(F)F)c(C(F)(F)F)c3)cc2)s1` [Example 710], the IC50 lay within 100 to 500 nM.

In the case of `COc1cc(C(=O)O)ccc1NS(=O)(=O)c1cnc(-c2ccc(C3=C[C@H]4CC[C@]3(C)C4(C)C)cc2)s1` [Example 711], the IC50 lay in the range of 100 to 500 nM.

`COc1cc(C(=O)O)ccc1NS(=O)(=O)c1cnc(-c2ccc([C@H]3CC[C@@H](C(F)(F)F)CC3)cc2)s1` [Example 712]: the IC50 is less than 100 nM.

In the case of `COc1cc(C(=O)O)ccc1NS(=O)(=O)c1cnc(-c2ccc([C@H]3CC[C@H](C(F)(F)F)CC3)cc2)s1` [Example 713], the IC50 is less than 100 nM.

For the molecule `COc1cc(C(=O)O)ccc1NS(=O)(=O)c1cnc(-c2ccc(-c3ccc(C(F)(F)C(F)(F)F)cc3)cc2)s1` [Example 714], the IC50 was 100 to 500 nM.

Take `CCC[C@H]1CC[C@H](c2ccc(-c3nc(S(=O)(=O)Nc4cc(F)c(C(=O)O)cc4OC)cs3)cc2)CC1` [Example 715]: the IC50 was less than 100 nM.

As for `COc1cc(C(=O)O)ccc1NS(=O)(=O)c1csc(-c2ccc(C3=CCC(C(F)(F)F)CC3)cc2)n1` (stereo not shown) [Example 716], the IC50 is less than 100 nM.

On to `COc1cc(C(=O)O)c(F)cc1NS(=O)(=O)c1cnc(-c2ccc(C3=CCC(C(C)(C)C)CC3)cc2)s1` (stereo not shown) [Example 717], for which the IC50 was less than 100 nM.

For `COc1cc(C(=O)O)ccc1NS(=O)(=O)c1cnc(-c2ccc(-c3ccc(C(F)(F)F)cc3)cc2)s1` [Example 718], the IC50 was less than 100 nM.

For `COc1cc(C(=O)O)c(F)cc1NS(=O)(=O)c1cnc(-c2ccc(C3=CCC(C(F)(F)F)CC3)cc2)s1` (stereo not shown) [Example 719], the IC50 was less than 100 nM.

The values above are taken from patent US12384753B2, “17-beta-hydroxysteroid dehydrogenase type 13 inhibitors and methods of use thereof” (Enanta Pharmaceuticals, Inc., priority 2021, dated 2025).
